Results reported in US20250281461A1 (The Board of Supervisors of Louisiana State University and …, priority 2021, published 2025).

Conditions: mouse, in vivo

Cc1ccc(NC(=O)c2ccc(CN3CCN(C)CC3)cc2)cc1Nc1nccc(-c2cccnc2)n1 [Imatinib]
no significant changes: serum ALT levels | serum AST levels | serum BUN levels

COC(=O)Nc1nc2ccc(C(=O)c3ccccc3)cc2[nH]1 [Mebendazole]
no significant changes: serum ALT levels | serum AST levels | serum BUN levels
